Data as given in patent US20110150836A1, “METHODS OF TREATING HBV AND HCV INFECTION” (Gilead Sciences, Inc., priority 2009, published 2011).

Tested on: cytokines and interferon-inducible genes
Experiment: mRNA expression of cytokines and interferon-inducible genes in whole blood of healthy woodchucks (real time PCR)
Type: in vivo
Experimental: Compound A was administered orally to adult, WHV-negative woodchucks at two different doses. Three male woodchucks received Compound A at 0.05 mg/kg and three other male woodchucks at 0.5 mg/kg. Whole blood samples (4 mls) were collected from each woodchuck prior to dosing at T0, and then at 4, 8, 12, and 24 hours post-dose using EDTA-containing collection tubes.
The induction of an immune response in woodchucks following administration of Compound A was determined by measuring the mRNA expression of cytokines and interferon-inducible genes in whole blood samples collected at different time points. Total RNA was isolated using the QIAamp RNA Blood Mini Kit (Qiagen) according to the manufacturer's specifications. RNA was eluted into 40 μl nuclease-free water and stored at −70° C. The concentration of RNA was determined spectrophotometrically at OD 260 nm. Two μg of RNA were treated with DNase I (Invitrogen) and reverse transcribed to cDNA with MultiScribe Reverse Transcriptase (Applied Biosystems) using random hexamers. Triplicates of 2 μl cDNA were amplified by real time PCR on an ABI PRISM 7000 Sequence Detection instrument (Applied Biosystems) using SYBR GREEN Master Mix (Applied Biosystems) and woodchuck-specific primers. Amplified target genes included IFN-α, IFN-γ, TNF-α, IL-2, IL-6, IL-10 IL-12, 2′5′-OAS, IDO, and MxA. Woodchuck β-actin mRNA expression was used to normalize target gene expression. Transcription levels of woodchuck cytokines and interferon-inducible genes were represented by the formula 2ΔCt, where ΔCt indicates the difference in the threshold cycle between β-actin and target gene expression. Results were further represented as a fold-change from the transcription level at T0.

CCCCOc1nc(N)c2nc(O)n(Cc3cccc(CN4CCCC4)c3)c2n1 [Compound A, 6-amino-2-butoxy-9-(3-(pyrrolidin-1-ylmethyl)benzyl)-9H-purin-8-ol]
2′5′-OAS mRNA expression in peripheral blood, Mean (oral 0.05 mg/kg, 4 hrs): 13.89 | 2′5′-OAS mRNA expression, Fold-change from T0 (oral 0.05 mg/kg, 4 hrs): 3.8 fold | IDO mRNA expression in peripheral blood, Mean (oral 0.05 mg/kg, 4 hrs): 1.30 | IDO mRNA expression, Fold-change from T0 (oral 0.05 mg/kg, 4 hrs): 1.1 fold | IFN-a mRNA expression in peripheral blood, Mean (oral 0.05 mg/kg, 4 hrs): 7.21 | IFN-a mRNA expression, Fold-change from T0 (oral 0.05 mg/kg, 4 hrs): 3.1 fold | IFN-γ mRNA expression in peripheral blood, Mean (oral 0.05 mg/kg, 4 hrs): 2.03 | IFN-γ mRNA expression, Fold-change from T0 (oral 0.05 mg/kg, 4 hrs): 1.6 fold | IL-2 mRNA expression in peripheral blood, Mean (oral 0.05 mg/kg, 4 hrs): 2.11 | IL-2 mRNA expression, Fold-change from T0 (oral 0.05 mg/kg, 4 hrs): 1.9 fold | IL-6 mRNA expression in peripheral blood, Mean (oral 0.05 mg/kg, 4 hrs): 9.75 | IL-6 mRNA expression, Fold-change from T0 (oral 0.05 mg/kg, 4 hrs): 2.3 fold | IL-10 mRNA expression in peripheral blood, Mean (oral 0.05 mg/kg, 4 hrs): 4.14 | IL-10 mRNA expression, Fold-change from T0 (oral 0.05 mg/kg, 4 hrs): 1.7 fold | IL-12 mRNA expression in peripheral blood, Mean (oral 0.05 mg/kg, 4 hrs): 7.27 | IL-12 mRNA expression, Fold-change from T0 (oral 0.05 mg/kg, 4 hrs): 4.5 fold | MxA mRNA expression in peripheral blood, Mean (oral 0.05 mg/kg, 4 hrs): 2.26 | MxA mRNA expression, Fold-change from T0 (oral 0.05 mg/kg, 4 hrs): 1.4 fold | TNF-a mRNA expression in peripheral blood, Mean (oral 0.05 mg/kg, 4 hrs): 23.83 | TNF-a mRNA expression, Fold-change from T0 (oral 0.05 mg/kg, 4 hrs): 3.5 fold | 2′5′-OAS mRNA expression in peripheral blood, Mean (oral 0.05 mg/kg, 8 hrs): 16.96 | 2′5′-OAS mRNA expression, Fold-change from T0 (oral 0.05 mg/kg, 8 hrs): 4.8 fold | IDO mRNA expression in peripheral blood, Mean (oral 0.05 mg/kg, 8 hrs): 2.05 | IDO mRNA expression, Fold-change from T0 (oral 0.05 mg/kg, 8 hrs): 2.2 fold | IFN-a mRNA expression in peripheral blood, Mean (oral 0.05 mg/kg, 8 hrs): 12.99 | IFN-a mRNA expression, Fold-change from T0 (oral 0.05 mg/kg, 8 hrs): 4.2 fold | IFN-γ mRNA expression in peripheral blood, Mean (oral 0.05 mg/kg, 8 hrs): 4.34 | IFN-γ mRNA expression, Fold-change from T0 (oral 0.05 mg/kg, 8 hrs): 3.4 fold | IL-2 mRNA expression in peripheral blood, Mean (oral 0.05 mg/kg, 8 hrs): 1.74 | IL-2 mRNA expression, Fold-change from T0 (oral 0.05 mg/kg, 8 hrs): 1.5 fold | IL-6 mRNA expression in peripheral blood, Mean (oral 0.05 mg/kg, 8 hrs): 10.57 | IL-6 mRNA expression, Fold-change from T0 (oral 0.05 mg/kg, 8 hrs): 2.6 fold | IL-10 mRNA expression in peripheral blood, Mean (oral 0.05 mg/kg, 8 hrs): 8.48 | IL-10 mRNA expression, Fold-change from T0 (oral 0.05 mg/kg, 8 hrs): 3.4 fold | IL-12 mRNA expression in peripheral blood, Mean (oral 0.05 mg/kg, 8 hrs): 7.35 | IL-12 mRNA expression, Fold-change from T0 (oral 0.05 mg/kg, 8 hrs): 4.7 fold | MxA mRNA expression in peripheral blood, Mean (oral 0.05 mg/kg, 8 hrs): 5.93 | MxA mRNA expression, Fold-change from T0 (oral 0.05 mg/kg, 8 hrs): 3.8 fold | TNF-a mRNA expression in peripheral blood, Mean (oral 0.05 mg/kg, 8 hrs): 20.72 | TNF-a mRNA expression, Fold-change from T0 (oral 0.05 mg/kg, 8 hrs): 3.0 fold | 2′5′-OAS mRNA expression in peripheral blood, Mean (oral 0.05 mg/kg, 12 hrs): 54.92 | 2′5′-OAS mRNA expression, Fold-change from T0 (oral 0.05 mg/kg, 12 hrs): 15.6 fold | IDO mRNA expression in peripheral blood, Mean (oral 0.05 mg/kg, 12 hrs): 10.64 | IDO mRNA expression, Fold-change from T0 (oral 0.05 mg/kg, 12 hrs): 7.7 fold | IFN-a mRNA expression in peripheral blood, Mean (oral 0.05 mg/kg, 12 hrs): 3.82 | IFN-a mRNA expression, Fold-change from T0 (oral 0.05 mg/kg, 12 hrs): 1.3 fold | IFN-γ mRNA expression in peripheral blood, Mean (oral 0.05 mg/kg, 12 hrs): 2.64 | IFN-γ mRNA expression, Fold-change from T0 (oral 0.05 mg/kg, 12 hrs): 2.0 fold | IL-2 mRNA expression in peripheral blood, Mean (oral 0.05 mg/kg, 12 hrs): 2.43 | IL-2 mRNA expression, Fold-change from T0 (oral 0.05 mg/kg, 12 hrs): 2.1 fold | IL-6 mRNA expression in peripheral blood, Mean (oral 0.05 mg/kg, 12 hrs): 6.22 | IL-6 mRNA expression, Fold-change from T0 (oral 0.05 mg/kg, 12 hrs): 1.5 fold | IL-10 mRNA expression in peripheral blood, Mean (oral 0.05 mg/kg, 12 hrs): 7.35 | IL-10 mRNA expression, Fold-change from T0 (oral 0.05 mg/kg, 12 hrs): 3.0 fold | IL-12 mRNA expression in peripheral blood, Mean (oral 0.05 mg/kg, 12 hrs): 21.12 | IL-12 mRNA expression, Fold-change from T0 (oral 0.05 mg/kg, 12 hrs): 12.7 fold | MxA mRNA expression in peripheral blood, Mean (oral 0.05 mg/kg, 12 hrs): 18.70 | MxA mRNA expression, Fold-change from T0 (oral 0.05 mg/kg, 12 hrs): 12.5 fold | TNF-a mRNA expression in peripheral blood, Mean (oral 0.05 mg/kg, 12 hrs): 35.05 | TNF-a mRNA expression, Fold-change from T0 (oral 0.05 mg/kg, 12 hrs): 5.2 fold | 2′5′-OAS mRNA expression in peripheral blood, Mean (oral 0.05 mg/kg, 24 hrs): 36.91 | 2′5′-OAS mRNA expression, Fold-change from T0 (oral 0.05 mg/kg, 24 hrs): 11.9 fold | IDO mRNA expression in peripheral blood, Mean (oral 0.05 mg/kg, 24 hrs): 26.71 | IDO mRNA expression, Fold-change from T0 (oral 0.05 mg/kg, 24 hrs): 25.6 fold | IFN-a mRNA expression in peripheral blood, Mean (oral 0.05 mg/kg, 24 hrs): 2.63 | IFN-a mRNA expression, Fold-change from T0 (oral 0.05 mg/kg, 24 hrs): 1.0 fold | IFN-γ mRNA expression in peripheral blood, Mean (oral 0.05 mg/kg, 24 hrs): 1.82 | IFN-γ mRNA expression, Fold-change from T0 (oral 0.05 mg/kg, 24 hrs): 1.2 fold | IL-2 mRNA expression in peripheral blood, Mean (oral 0.05 mg/kg, 24 hrs): 3.64 | IL-2 mRNA expression, Fold-change from T0 (oral 0.05 mg/kg, 24 hrs): 3.2 fold | IL-6 mRNA expression in peripheral blood, Mean (oral 0.05 mg/kg, 24 hrs): 4.30 | IL-6 mRNA expression, Fold-change from T0 (oral 0.05 mg/kg, 24 hrs): 1.1 fold | IL-10 mRNA expression in peripheral blood, Mean (oral 0.05 mg/kg, 24 hrs): 6.08 | IL-10 mRNA expression, Fold-change from T0 (oral 0.05 mg/kg, 24 hrs): 2.3 fold | MxA mRNA expression in peripheral blood, Mean (oral 0.05 mg/kg, 24 hrs): 117.33 | MxA mRNA expression, Fold-change from T0 (oral 0.05 mg/kg, 24 hrs): 69.3 fold | TNF-a mRNA expression in peripheral blood, Mean (oral 0.05 mg/kg, 24 hrs): 20.53 | TNF-a mRNA expression, Fold-change from T0 (oral 0.05 mg/kg, 24 hrs): 3.2 fold | 2′5′-OAS mRNA expression in peripheral blood, Mean (oral 0.5 mg/kg, 4 hrs): 33.05 | 2′5′-OAS mRNA expression, Fold-change from T0 (oral 0.5 mg/kg, 4 hrs): 6.5 fold
